Key:
[1] = biological target: Tau-RD3 (Tau repeat domain 3) (Homo sapiens, UniProt P10636); test: Tau disaggregation test by thioflavin-T assay; assay type: biochemical; conditions: 35 μM Tau-RD3 aggregated 24 hours, then compound 0-500 μM for 48 hours at 37° C.
Experimental: (§1) Each compound was dissolved in DMSO to a concentration of 10 mM. Subsequently, the compound was diluted with 6% DMSO (in DW) and used.
(§2) Specifically, amyloid-beta and tau solutions were prepared by dissolving Aβ1-42 or Tau-RD3 (Tau repeat domain 3) monomer in DMSO to a concentration of 10 mM. Thereafter, each solution was diluted with DW to a concentration of 100 μM and stored on ice. Meanwhile, thioflavin-T was dissolved in 50 mM glycine buffer (pH 8.5) to a concentration of 5 mM. Thereafter, the resulting solution was diluted with 50 mM glycine buffer (pH 8.5) to a concentration of 5 μM and stored in a dark room while light was blocked.
(§3) Each of the amyloid-beta and tau solutions prepared according to Experimental Example 1.1 was added to a 1.5 mL microcentrifuge tube to a concentration of 50 μM or 35 µM, and then a reaction was allowed to occur therebetween at 37° C. for 24 hours. Each of the 1.5 mL microcentrifuge tubes in which amyloid-beta aggregation and tau aggregation had been completed was treated with each compound at a concentrated of 500 μM to 0 μM through serial dilution, and then a further reaction was allowed to occur therebetween at 37° C. for 48 hours. 25 μL of the reaction solution in which the reaction had been completed was added to each well of a 96-well plate for fluorescence analysis, and 75 μL of the previously prepared thioflavin-T solution was added to each well. After a reaction was allowed to occur at room temperature in the dark for 5 minutes, fluorescence values were measured at excitation 450 nm and emission 485 nm by using a multi-mode microplate reader.
(§4) The fluorescence value of a group (control) treated with amyloid-beta or tau alone, followed by aggregation for 72 hours was converted into a percentage value and expressed as 100, and amyloid-beta and tau aggregates, in which aggregation had been completed upon reaction for 24 hours, were treated with each compound at each concentration and a further reaction was allowed to occur therebetween for 48 hours, and then fluorescence values thereof were measured and converted into relative values. The results thereof are illustrated in FIGS. 1 to 6 and 7 to 12. In addition, EC50 values of the compounds of the present disclosure for amyloid-beta and tau, respectively are summarized in Table 1.

Aβ1-42 = biological target: T1, Aβ1-42 (Homo sapiens, UniProt P05067); test: Amyloid-beta (Aβ) disaggregation test by thioflavin-T assay; assay type: biochemical; conditions: 50 μM Aβ1-42 aggregated 24 hours, then compound 0-500 μM for 48 hours at 37° C.
T1 construct: dissolving Aβ1-42 or Tau-RD3 (Tau repeat domain 3) monomer in DMSO
T1 sequence (P05067 672-713 limits assumed): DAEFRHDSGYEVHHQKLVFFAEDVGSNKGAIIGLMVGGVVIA
Experimental: as §1, §2, §3, §4

Tau-RD3 (Tau repeat domain 3), sequence (P10636 623-653 limits assumed): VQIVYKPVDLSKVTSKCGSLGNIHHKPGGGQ

SMILES | EC50 [1] [µM] | EC50 (Aβ1-42) [µM]
Cc1scnc1C1=C(c2cncnc2)C(=O)c2cc(OCCOc3ccc(Cl)c(Cl)c3)ccc21 [Compound 26, 6-(2-(3,4-dichlorophenoxy)ethoxy)-3-(5-methylthiazol-4-yl)-2-(pyrimidin-5-yl)-1H-inden-1-one] | 4.8 | 2.4
COc1ccc(C2=C(c3ncsc3C)c3ccc(OCCCCc4ccccc4)cc3C2=O)cc1 [Compound 19, 2-(4-methoxyphenyl)-3-(5-methylthiazol-4-yl)-6-(4-phenylbutoxy)-1H-inden-1-one] | 338 | 11.6
Cc1ncsc1C1=C(c2cccnc2)C(=O)c2cc(OCOCc3ccccc3)ccc21 [Compound 16, 6-((benzyloxy)methoxy)-3-(4-methylthiazol-5-yl)-2-(pyridin-3-yl)-1H-inden-1-one] | 96.5 | 12.5
Cc1scnc1C1=C(c2cccs2)C(=O)c2cc(OCCOc3ccc(Cl)c(Cl)c3)ccc21 [Compound 36, 6-(2-(3,4-dichlorophenoxy)ethoxy)-3-(5-methylthiazol-4-yl)-2-(thiophen-2-yl)-1H-inden-1-one] | > 500 | 26
COc1ccc(OCCOc2ccc3c(c2)C(=O)C(c2cccnc2)=C3c2ccoc2)cc1 [Compound 42, 3-(furan-3-yl)-6-(2-(4-methoxyphenoxy)ethoxy)-2-(pyridin-3-yl)-1H-inden-1-one] | 124 | 31.2
O=C1C(c2cccnc2)=C(c2cccs2)c2ccc(OCCCc3ccccc3)cc21 [Compound 6, 6-(3-phenylpropoxy)-2-(pyridin-3-yl)-3-(thiophen-2-yl)-1H-inden-1-one] | 16.2 | 3.2
Cc1scnc1C1=C(c2ccc(F)cc2)C(=O)c2cc(OCCOc3ccncc3)ccc21 [Compound 25, 2-(4-fluorophenyl)-3-(5-methylthiazol-4-yl)-6-(2-(pyridin-4-yloxy)ethoxy)-1H-inden-1-one] | > 500 | 7.6
COc1ccc(OCCOc2ccc3c(c2)C(=O)C(c2ccc(F)cc2)=C3c2ncsc2C)cc1 [Compound 22, 2-(4-fluorophenyl)-6-(2-(4-methoxyphenoxy)ethoxy)-3-(5-methylthiazol-4-yl)-1H-inden-1-one] | 60.3 | 18.5
Cc1ncsc1C1=C(c2ccccc2CC#N)C(=O)c2cc(OCCCc3ccccc3)ccc21 [Compound 2, 2-(2-(3-(4-methylthiazol-5-yl)-1-oxo-6-(3-phenylpropoxy)-1H-inden-2-yl)phenyl) acetonitrile] | 321 | 92.9
O=C1C(c2cccnc2)=C(c2ccoc2)c2ccc(OCCc3ccccc3)cc21 [Compound 38, 3-(furan-3-yl)-6-phenethoxy-2-(pyridin-3-yl)-1H-inden-1-one] | 120 | 3
Cc1scnc1C1=C(c2cccs2)C(=O)c2cc(OCCOc3ccc(F)c(F)c3)ccc21 [Compound 37, 6-(2-(3,4-difluorophenoxy)ethoxy)-3-(5-methylthiazol-4-yl)-2-(thiophen-2-yl)-1H-inden-1-one] | 470 | 46.3
Cc1ncsc1C1=C(c2cccnc2)C(=O)c2cc(OCCCCc3ccccc3)ccc21 [Compound 15, 3-(4-methylthiazol-5-yl)-6-(4-phenylbutoxy)-2-(pyridin-3-yl)-1H-inden-1-one] | 59.8 | 2.5
Cc1scnc1C1=C(c2ccc(F)cc2)C(=O)c2cc(OCCOc3ccc4c(c3)OCO4)ccc21 [Compound 24, 6-(2-(benzo[d][1,3]dioxol-5-yloxy)ethoxy)-2-(4-fluorophenyl)-3-(5-methylthiazol-4-yl)-1H-inden-1-one] | > 500 | 99.6
COc1ccc(C2=C(c3ncsc3C)c3ccc(OCOCc4ccccc4)cc3C2=O)cc1 [Compound 20, 6-((benzyloxy)methoxy)-2-(4-methoxyphenyl)-3-(5-methylthiazol-4-yl)-1H-inden-1-one] | 478 | 11.9
Cc1scnc1C1=C(c2cccnc2)C(=O)c2cc(OCCCN3CCOCC3)ccc21 [Compound 4, 3-(5-methylthiazol-4-yl)-6-(3-morpholinopropoxy)-2-(pyridin-3-yl)-1H-inden-1-one] | 156 | 75

Source: patent US20260256797A1, “NOVEL INDENONE DERIVATIVES AND USES THEREOF” (AMYLOID SOLUTION INC., priority 2022, published 2026)
